The subject of data set [1] is squamous or non-squamous NSCLC. As to conditions: cited from earlier work.
For data set [2], the system named is advanced refractory malignancies. Particulars: cited from earlier work.
Another data set relates to melanoma. Particulars: cited from earlier work.
For data set [3], the system named is T-cell subsets in PBMCs of breast cancer patients. Put plainly: ENCORE 301 blood samples: T-cell subsets and immune checkpoint receptor expression. It is filed as in vivo, human. As to conditions: ENCORE 301 patients, C1D15 vs baseline. The procedure: FIG. 5 illustrates gating strategy for analysis of T-cell subsets in PBMCs of breast cancer patients. (A) Initial gating was on single viable cells. The CD4^+ T-cells were further divided into Tregs (CD8^−CD4^+CD25^hiFoxp3^+ cells) and Foxp3^−CD4^+ T-cells (CD8^−CD4^+Foxp3^− cells). (B) Immune checkpoint receptor expression was evaluated for CD8^+ T-cells, Foxp3^−CD4^+ T-cells, and Tregs. Representative histograms for PD-1 (left), CTLA-4 (middle), and TIM-3 (right) were shown.
CD8+ T-cell: CD4−, CD8+, Foxp3−.
CD4+ T-cell: CD8−, CD4+, Foxp3−.
Tregs: CD4+, CD8−, CD25hi, Foxp3+.
(§1) Monocytes were analyzed for three populations: (1) CD14+; (2) CD14+, HLA-DRhi; and (3) CD14+, HLA-DRlow/−. PD-1, CTLA-4, and TIM-3 were measured on CD8+ T-cells, CD4+ T-cells, and Tregs, and CD40 was measured on myeloid derived suppressor cells.
(§2) The percent change in subsets at C1D15 vs. baseline was assessed based on the following surface markers: Lin-MDSC (lin;CD3,CD19,CD56)-HLA-DR-CD11b+CD33+), granulocytic MDSC (CD14−CD11b+CD33+), monocytic MDSC (Lin−HLA-DR−CD11b+CD33+CD14+), immature MDSC (Lin−HLA-DR−CD11b+CD33+CD14−), CD8+T-cells (CD4−CD8+), Foxp3−CD4+T-cells (CD8−CD4+Foxp3−), and Tregs (CD4+CD8−CD25hiFoxp3+). Monocytes were analyzed for three populations: CD14+, CD14+HLA-DRhi, and CD14+HLA-DR-low/negative. In addition, PD-1, CTLA-4, and TIM-3 were measured on T-cell subsets, and CD40 was measured on MDSCs.

Data set [4] has as its system monocytic MDSCs, granulocytic MDSCs and Lineage cells from healthy donor PBMCs. Put plainly: In vitro dead cell dye staining of PBMCs cultured with IL-6 and GM-CSF, then DMSO or entinostat. Particulars: entinostat 0.5 μM vs DMSO, two or three days, n=7. The class given is cell-based, human. Here is the method:
(C) Absolute viable cell counts of MDSCs (upper panel, monocytic MDSCs; lower panel, granulocytic MDSCs). Fresh PBMCs (2×10^6 PBMCs/well) were cultured with IL-6 (10 ng/ml) and GM-CSF (10 ng/ml). […] (D) Percentage of dead cell dye-positive cells in the monocytic MDSCs (red line), granulocytic MDSCs (blue line), and Lineage cells (black line). […] Percentage of dead cell dye-positive cells among each population (monocytic MDSCs, granulocytic MDSCs, and lineage cells) was calculated. Mean±SD is shown (n=7).

For data set [5] the following is noted: in vivo; cited from earlier work.
The subject of data set [6] is CD14+ monocytes in PBMCs of breast cancer patients. Put plainly: ENCORE 301 blood samples: flow cytometry of circulating monocyte populations, baseline vs C1D15. It is filed as in vivo, human.
Description: (A) Gating strategy for analysis of CD14^+ monocytes (left panel), CD14^+HLA-DR^hi monocytes (red box, right upper panel), and CD14^+HLA-DR^low/neg monocytes (blue box, right lower panel) in PBMCs of breast cancer patients. Initially gated on single viable CD45^+ cells. […] (D) HLA-DR expression on CD14^+ monocytes in vitro. […] Median fluorescence intensity, MFI.
(§3) Blood samples were obtained on cycle 1 day 1 (C1D1; pre-treatment), C1D2, C1D8, and C1D15 for biomarker analyses. […] Cell populations were based on the following surface markers, in which “X−” means negative for marker X, “X+” means positive for marker X, “Xlow/−” means low levels to absence of marker X, and “Xhi” means high levels of expression of marker X:
as §1, §2

The subject of data set [7] is myeloid derived suppressor cells in PBMCs of breast cancer patients. Put plainly: ENCORE 301 blood samples: flow cytometry of circulating MDSC subsets and CD40 on MDSCs, baseline vs C1D15. It is filed as in vivo, human.
Description: (A) Gating strategy for analysis of MDSC phenotypes in PBMCs of breast cancer patients. Initial gating was on single viable CD45^+ cells. Lineage (CD3, CD19, CD56)^−HLA-DR^−CD11b^+CD33^+ cells were defined as Lin^−MDSCs. The Lin^−MDSCs were further divided into monocytic MDSCs (Lin^−HLA-DR^−CD11b^+CD33^+CD14^+ cells) and immature MDSCs (Lin^−HLA-DR^−CD11b^+CD33^+CD14^− cells). CD14^−CD11b^+CD33^+ cells were defined as granulocytic MDSCs. […]
as §3
Myeloid derived suppressor cell: CD3−, CD19−, CD56−, HLA-DR−, CD11b+, CD33+.
PMN-MDSC: CD14−, CD11b+, CD33+.
M-MDSC: CD3−, CD19−, CD56−, HLA-DR−, CD11b+, CD33+, CD14+.
Immature MDSC: CD3−, CD19−, CD56−, HLA-DR−, CD11b+, CD33+, CD14−.
as §1, §2
(In general: A flow cytometer gives signals particle by particle.)

Data set [8] deals with advanced hormone receptor positive breast cancer. Put plainly: ENCORE 301 randomized, placebo-controlled phase II trial: clinical outcome (PFS, OS). It is filed as in vivo, human. Particulars: the 34 patients analysed for immune subsets. From the text:
Blood was collected from a subset of 49 patients (27 EE and 22 EP) representative of the 130 patients enrolled in ENCORE 301 on cycle 1 day 1 (C1D1; pretreatment), C1D2, C1D8, and C1D15 for biomarker analyses. Of these 49, C1D1 and C1D15 samples were available from 34 patients (20 EE and 14 EP) for further analysis of circulating immune subsets.

Setting [9] is: C1D1 vs C1D15, statistic not stated.
Setting [10] is: breast cancer patients, EP n = 14, EE n = 20, mean.
The mark [11] stands for this setting: breast cancer patients, EP n = 14, EE n = 20, median.

This is an account of results in patent publication US11397184B2, “Selection of patients for combination therapy” (Syndax Pharmaceuticals, Inc., priority 2015, dated 2022).

Like-named read-outs stand apart in the source and are kept apart here.

Turning to “MPDL3280A: human anti-PD-L1 mAb with engineered Fc domain”, the “24-week PFS rate” value in [1] (non-squamous cell NSCLC) is recorded as 46%; in data set [1] (squamous cell NSCLC), 44%.

For the compound “Pembrolizumab: humanized monoclonal IgG4 anti-PD-1 antibody”, the maximum tolerated dose result in [2] (1, 3 and 10 mg/kg intravenously) is given as “not reached”. For the same compound, the “patients with some tumor regression” value in data set [2] (dose-escalation study) was “Four”. Besides, the half-life – broadly, the time needed for the level to fall by half in the phase considered – in data set [2] (in vivo) was 13.6 to 21.7 days. Besides, the “overall objective response rate (ORR)” value with melanoma (immune-related response criteria, 44 of 117) is listed as 38%. Also, in the data set on melanoma (in vivo), the “patients with some AEs” value was 79% and the “rate of severe toxicities, less dose intense cohorts” value is recorded as under 10%. In the data set on melanoma (melanoma), the “median progression free survival” value was “exceeded 7 months” and the “patients with some degree of tumor regression” value is given as 77%.

For `Nc1ccccc1NC(=O)c1ccc(CNC(=O)OCc2cccnc2)cc1` [Entinostat, N-(2-aminophenyl)-4-[N-(pyridine-3-yl)methoxycarbonylamino-methyl]-benzamide], the “alteration of expression of CTLA-4, PD-1, or TIM-3 on T-cell subsets” value in [3] was “did not significantly”. Also, in [4] (P=0.016), the “percentage of dead (dead cell dye-positive) granulocytic MDSCs” value is listed as “increased” and the “percentage of dead (dead cell dye-positive) monocytic MDSCs” value is recorded as “increased”. Also, in [4] (P=0.7), the “percentage of dead (dead cell dye-positive) lineage cells (CD3+, CD19+, or CD56+)” value is “not increased”. Besides, in data set [5], the half-life entry is on record as “about 100 hours”.

With `C=C1C[C@@H]2[C@H](CC[C@]3(C)C(=O)CC[C@@H]23)[C@@]2(C)C=CC(=O)C=C12` [EP], in [6] (setting [9]), the “HLA-DR levels (expression) on monocytes, change” value was −4.7% and the “change of (number of) HLA-DR+ monocytes” value was −11.38%. In data set [6] (setting [10]), the “CD14+ change from baseline to C1D15, Mean (SD)” value is listed as −0.58 (22.73) %; the “CD14+HLA-DR HI change from baseline to C1D15, Mean (SD)” value is listed as −8.63 (17.77) %; the “CD14+HLA-DR LO/NEG change from baseline to C1D15, Mean (SD)” value was 13.45 (43.11) %; the “HLA-DR expression on CD14+ change from baseline to C1D15, Mean (SD)” value is reported as −6.23 (18.77) %. In addition, in [6] (setting [11]), the “CD14+ change from baseline to C1D15, Median (Min, Max)” value is given as 1.90 %; the “CD14+HLA-DR HI change from baseline to C1D15, Median (Min, Max)” value is recorded as −11.38 %; the “CD14+HLA-DR LO/NEG change from baseline to C1D15, Median (Min, Max)” value turned out to be 1.55 %; the “HLA-DR expression on CD14+ change from baseline to C1D15, Median (Min, Max)” value is listed as −4.74 %. Also, in [7] (setting [9]), the “change of M-MDSCs (monocytic MDSC)” value is on record as “+1.97%”, the “change of PMN-MDSCs (granulocytic MDSC)” value is reported as “+20.56%” and the “change of immature MDSCs” value is −15.0%. Also, in data set [7] (setting [10]), the “CD40 on Lin-MDSCs change from baseline to C1D15, Mean (SD)” value is 14.85 (34.92) %; the “CD40 on g-MDSCs change from baseline to C1D15, Mean (SD)” value is listed as 16.52 (32.07) %; the “CD40 on immature MDSCs change from baseline to C1D15, Mean (SD)” value was 18.64 (35.15) %; the “CD40 on m-MDSCs change from baseline to C1D15, Mean (SD)” value was 3.37 (25.69) %. Further, in [7] (setting [10]), the “Lin-MDSCs change from baseline to C1D15, Mean (SD)” value is 1.28 (83.31) %; the “g-MDSCs change from baseline to C1D15, Mean (SD)” value is 20.56 (68.45) %; the “immature MDSCs change from baseline to C1D15, Mean (SD)” value is listed as 4.92 (94.50) %; the “m-MDSCs change from baseline to C1D15, Mean (SD)” value was 28.24 (86.60) %. In data set [7] (setting [11]), the “CD40 on Lin-MDSCs change from baseline to C1D15, Median (Min, Max)” value stood at 3.37 %; the “CD40 on g-MDSCs change from baseline to C1D15, Median (Min, Max)” value was found to be 10.52 %; the “CD40 on immature MDSCs change from baseline to C1D15, Median (Min, Max)” value stood at 9.00 %; the “CD40 on m-MDSCs change from baseline to C1D15, Median (Min, Max)” value came out at 1.57 %. Moreover, in [7] (setting [11]), the “Lin-MDSCs change from baseline to C1D15, Median (Min, Max)” value is listed as −22.11 %; the “g-MDSCs change from baseline to C1D15, Median (Min, Max)” value is given as 3.82 %; the “immature MDSCs change from baseline to C1D15, Median (Min, Max)” value is recorded as −20.94 %; the “m-MDSCs change from baseline to C1D15, Median (Min, Max)” value was determined as 1.97 %. In addition, in data set [8], the “Overall Survival (OS)” value worked out at 20.3 months and the “Progression Free Survival (PFS)” value worked out at 1.8 months.
